According to ChEMBL document CHEMBL1201862, “PubChem BioAssay data set” (2004):
The source made the active and inactive calls.

Tests used:
Assay type in all cases: functional
Caspase-3 = target: T1, Caspase-3 (Homo sapiens, UniProt P42574); assay: caspase-3 inhibitors as off-family protease, SAR follow-up, selectivity assay for SENP protease inhibitor project, biochemical, luminescence, set 2 (AID 588599)
T1 sequence (P42574 whole entry): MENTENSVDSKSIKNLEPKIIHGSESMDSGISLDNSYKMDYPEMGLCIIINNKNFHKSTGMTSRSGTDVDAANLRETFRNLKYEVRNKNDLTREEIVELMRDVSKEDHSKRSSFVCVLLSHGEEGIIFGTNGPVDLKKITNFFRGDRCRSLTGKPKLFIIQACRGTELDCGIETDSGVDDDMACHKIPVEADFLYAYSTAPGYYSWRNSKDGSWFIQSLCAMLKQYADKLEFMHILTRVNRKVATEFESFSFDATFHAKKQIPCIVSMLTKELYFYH

[1] = target: T2, Sentrin-specific protease 8 (Homo sapiens, UniProt Q96LD8); assay: SENP8 protease inhibitors, SAR follow-up, biochemical, luminescence, set 2 (AID 588601)
T2 sequence (Q96LD8 whole entry): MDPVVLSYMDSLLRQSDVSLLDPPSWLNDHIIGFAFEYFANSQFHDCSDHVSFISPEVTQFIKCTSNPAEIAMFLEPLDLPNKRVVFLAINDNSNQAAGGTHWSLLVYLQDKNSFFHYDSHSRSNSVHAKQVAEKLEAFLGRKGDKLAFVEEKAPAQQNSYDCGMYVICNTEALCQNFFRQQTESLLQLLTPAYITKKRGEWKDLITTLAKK

[2] = target: T3, Sentrin-specific protease 7 (Homo sapiens, UniProt Q9BQF6); assay: SENP7 protease inhibitors, SAR follow-up, biochemical, luminescence, set 2 (AID 588600)
T3 sequence (Q9BQF6 whole entry): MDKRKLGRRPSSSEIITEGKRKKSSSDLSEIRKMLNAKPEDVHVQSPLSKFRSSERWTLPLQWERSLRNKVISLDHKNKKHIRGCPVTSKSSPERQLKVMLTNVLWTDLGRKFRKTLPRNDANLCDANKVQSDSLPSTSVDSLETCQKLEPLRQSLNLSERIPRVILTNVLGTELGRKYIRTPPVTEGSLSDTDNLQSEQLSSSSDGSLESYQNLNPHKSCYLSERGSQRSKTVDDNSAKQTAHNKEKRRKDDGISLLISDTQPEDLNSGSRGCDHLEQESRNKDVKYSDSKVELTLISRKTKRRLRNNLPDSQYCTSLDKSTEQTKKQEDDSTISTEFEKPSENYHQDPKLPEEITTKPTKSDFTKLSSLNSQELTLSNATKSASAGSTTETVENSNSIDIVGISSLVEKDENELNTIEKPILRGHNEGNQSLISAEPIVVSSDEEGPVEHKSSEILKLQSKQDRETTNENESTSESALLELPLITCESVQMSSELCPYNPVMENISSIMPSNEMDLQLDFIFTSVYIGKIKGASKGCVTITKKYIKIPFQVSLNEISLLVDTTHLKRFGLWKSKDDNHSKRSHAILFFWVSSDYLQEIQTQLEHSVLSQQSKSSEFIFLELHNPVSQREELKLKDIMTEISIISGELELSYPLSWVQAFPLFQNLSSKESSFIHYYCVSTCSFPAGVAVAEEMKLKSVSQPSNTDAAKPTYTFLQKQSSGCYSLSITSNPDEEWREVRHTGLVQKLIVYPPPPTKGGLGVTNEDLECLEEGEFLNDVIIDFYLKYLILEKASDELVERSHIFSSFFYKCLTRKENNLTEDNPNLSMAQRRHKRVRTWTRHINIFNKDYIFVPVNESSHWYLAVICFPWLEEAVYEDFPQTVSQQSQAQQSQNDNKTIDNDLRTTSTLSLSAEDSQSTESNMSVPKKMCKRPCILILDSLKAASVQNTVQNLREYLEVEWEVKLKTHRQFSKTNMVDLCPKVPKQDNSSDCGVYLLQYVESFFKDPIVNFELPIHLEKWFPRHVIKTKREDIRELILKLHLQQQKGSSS

[3] = target: T4, Sentrin-specific protease 6 (Homo sapiens, UniProt Q9GZR1); assay: SENP6 protease inhibitors, SAR follow-up, biochemical, luminescence, set 2 (AID 588598)
T4 sequence (Q9GZR1 whole entry): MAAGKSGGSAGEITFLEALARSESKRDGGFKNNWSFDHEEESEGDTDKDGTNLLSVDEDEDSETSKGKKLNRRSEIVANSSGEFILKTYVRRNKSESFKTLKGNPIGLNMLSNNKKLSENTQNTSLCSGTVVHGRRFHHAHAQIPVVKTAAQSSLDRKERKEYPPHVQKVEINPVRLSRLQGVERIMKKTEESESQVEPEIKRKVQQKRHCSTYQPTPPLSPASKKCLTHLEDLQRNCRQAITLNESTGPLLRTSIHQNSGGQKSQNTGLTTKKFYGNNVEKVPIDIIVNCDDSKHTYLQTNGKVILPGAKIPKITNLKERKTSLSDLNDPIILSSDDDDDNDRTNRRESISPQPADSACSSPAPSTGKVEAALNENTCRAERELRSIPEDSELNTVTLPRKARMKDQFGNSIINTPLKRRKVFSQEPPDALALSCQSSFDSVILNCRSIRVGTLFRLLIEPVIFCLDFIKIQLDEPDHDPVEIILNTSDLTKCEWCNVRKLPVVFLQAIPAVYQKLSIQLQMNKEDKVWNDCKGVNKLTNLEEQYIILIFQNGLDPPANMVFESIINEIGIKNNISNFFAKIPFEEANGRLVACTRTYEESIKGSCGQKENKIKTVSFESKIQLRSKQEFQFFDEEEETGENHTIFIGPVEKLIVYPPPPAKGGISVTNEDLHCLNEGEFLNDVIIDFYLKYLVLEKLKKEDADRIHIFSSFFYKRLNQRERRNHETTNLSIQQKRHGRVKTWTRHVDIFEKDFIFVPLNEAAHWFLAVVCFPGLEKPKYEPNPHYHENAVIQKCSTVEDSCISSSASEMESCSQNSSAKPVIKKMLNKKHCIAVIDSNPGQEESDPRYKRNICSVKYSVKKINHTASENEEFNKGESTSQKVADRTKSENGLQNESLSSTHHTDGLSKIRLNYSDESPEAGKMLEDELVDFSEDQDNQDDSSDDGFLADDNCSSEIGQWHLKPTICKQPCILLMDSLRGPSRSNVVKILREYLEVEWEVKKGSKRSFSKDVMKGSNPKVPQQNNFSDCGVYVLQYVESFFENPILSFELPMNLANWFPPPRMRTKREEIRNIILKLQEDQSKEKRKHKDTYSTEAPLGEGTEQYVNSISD

Vero = Vero cell cytotoxicity, cytotoxicity control for flavivirus capping enzyme inhibitors (AID 588742); details: Chlorocebus sabaeus
[4] = target: T5, Rac GTPase-activating protein 1 (Homo sapiens, UniProt Q9H0H5); assay: MgcRacGAP GTPase-activating activity inhibitors, confirmation, biochemical, ADP Hunter fluorescence, primary and confirmatory (AID 624330)
T5 sequence (Q9H0H5 whole entry): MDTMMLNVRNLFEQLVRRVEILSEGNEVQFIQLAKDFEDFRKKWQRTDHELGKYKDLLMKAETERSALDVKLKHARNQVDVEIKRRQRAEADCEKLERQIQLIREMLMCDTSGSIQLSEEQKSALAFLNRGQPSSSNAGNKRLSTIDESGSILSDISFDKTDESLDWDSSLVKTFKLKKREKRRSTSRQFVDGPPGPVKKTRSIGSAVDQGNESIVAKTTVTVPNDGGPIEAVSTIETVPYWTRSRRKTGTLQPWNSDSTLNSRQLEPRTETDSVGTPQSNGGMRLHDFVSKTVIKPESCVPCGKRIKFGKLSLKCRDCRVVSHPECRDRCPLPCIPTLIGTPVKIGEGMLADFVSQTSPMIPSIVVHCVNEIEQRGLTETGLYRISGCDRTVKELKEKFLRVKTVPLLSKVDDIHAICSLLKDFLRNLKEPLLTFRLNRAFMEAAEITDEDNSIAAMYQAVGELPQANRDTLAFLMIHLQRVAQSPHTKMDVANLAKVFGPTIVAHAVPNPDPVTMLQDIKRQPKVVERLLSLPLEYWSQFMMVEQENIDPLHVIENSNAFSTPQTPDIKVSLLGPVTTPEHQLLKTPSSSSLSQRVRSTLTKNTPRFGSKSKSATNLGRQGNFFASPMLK

[5] = target: Induced myeloid leukemia cell differentiation protein Mcl-1 (Homo sapiens, UniProt Q07820)
Induced myeloid leukemia cell differentiation protein Mcl-1, sequence (Q07820 whole entry): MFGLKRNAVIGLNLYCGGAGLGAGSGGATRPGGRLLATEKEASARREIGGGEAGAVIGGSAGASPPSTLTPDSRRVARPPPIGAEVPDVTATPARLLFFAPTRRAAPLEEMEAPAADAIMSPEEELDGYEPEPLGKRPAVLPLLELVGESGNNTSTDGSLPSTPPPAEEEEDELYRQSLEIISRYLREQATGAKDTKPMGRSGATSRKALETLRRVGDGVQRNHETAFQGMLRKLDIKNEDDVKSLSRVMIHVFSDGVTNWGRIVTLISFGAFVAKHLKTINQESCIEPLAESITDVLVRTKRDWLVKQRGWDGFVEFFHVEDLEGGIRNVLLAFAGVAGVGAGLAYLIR

Hexokinase HKDC1 = target: T6, Hexokinase HKDC1 (Homo sapiens, UniProt Q2TB90); assay: HKDC1 hexokinase inhibitors, dose response, biochemical, W721R variant (AID 504729)
T6 sequence (Q2TB90 whole entry): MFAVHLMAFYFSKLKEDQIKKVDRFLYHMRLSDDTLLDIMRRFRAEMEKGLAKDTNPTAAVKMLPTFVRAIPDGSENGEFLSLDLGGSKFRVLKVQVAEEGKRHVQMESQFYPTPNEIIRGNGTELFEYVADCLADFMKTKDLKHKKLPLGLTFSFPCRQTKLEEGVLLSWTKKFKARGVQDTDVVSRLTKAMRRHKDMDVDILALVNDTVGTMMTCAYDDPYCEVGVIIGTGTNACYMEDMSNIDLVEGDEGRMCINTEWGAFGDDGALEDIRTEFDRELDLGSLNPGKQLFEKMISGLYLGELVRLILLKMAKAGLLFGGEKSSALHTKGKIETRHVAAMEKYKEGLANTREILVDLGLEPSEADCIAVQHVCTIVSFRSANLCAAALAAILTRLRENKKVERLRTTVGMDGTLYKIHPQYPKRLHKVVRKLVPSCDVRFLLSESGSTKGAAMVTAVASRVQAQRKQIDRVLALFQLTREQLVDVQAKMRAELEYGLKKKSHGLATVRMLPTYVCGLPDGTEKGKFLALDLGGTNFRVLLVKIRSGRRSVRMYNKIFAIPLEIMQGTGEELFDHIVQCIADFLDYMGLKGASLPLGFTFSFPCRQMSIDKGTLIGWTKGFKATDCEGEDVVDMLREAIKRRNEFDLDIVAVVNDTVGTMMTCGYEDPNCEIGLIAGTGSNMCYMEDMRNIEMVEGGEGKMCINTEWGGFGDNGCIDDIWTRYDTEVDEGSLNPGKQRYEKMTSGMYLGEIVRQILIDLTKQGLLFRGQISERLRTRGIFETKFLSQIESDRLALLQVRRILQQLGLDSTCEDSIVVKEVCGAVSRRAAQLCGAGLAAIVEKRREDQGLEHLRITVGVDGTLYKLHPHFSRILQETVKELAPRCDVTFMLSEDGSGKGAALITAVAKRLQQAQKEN

Genome polyprotein = Genome polyprotein (dengue virus type 2, UniProt P29990); assay: Dengue-2 NS5 methyltransferase inhibitors, primary screen, biochemical, confirmation dose response (AID 588689)
Genome polyprotein, sequence (P29990 2492-3391 limits assumed): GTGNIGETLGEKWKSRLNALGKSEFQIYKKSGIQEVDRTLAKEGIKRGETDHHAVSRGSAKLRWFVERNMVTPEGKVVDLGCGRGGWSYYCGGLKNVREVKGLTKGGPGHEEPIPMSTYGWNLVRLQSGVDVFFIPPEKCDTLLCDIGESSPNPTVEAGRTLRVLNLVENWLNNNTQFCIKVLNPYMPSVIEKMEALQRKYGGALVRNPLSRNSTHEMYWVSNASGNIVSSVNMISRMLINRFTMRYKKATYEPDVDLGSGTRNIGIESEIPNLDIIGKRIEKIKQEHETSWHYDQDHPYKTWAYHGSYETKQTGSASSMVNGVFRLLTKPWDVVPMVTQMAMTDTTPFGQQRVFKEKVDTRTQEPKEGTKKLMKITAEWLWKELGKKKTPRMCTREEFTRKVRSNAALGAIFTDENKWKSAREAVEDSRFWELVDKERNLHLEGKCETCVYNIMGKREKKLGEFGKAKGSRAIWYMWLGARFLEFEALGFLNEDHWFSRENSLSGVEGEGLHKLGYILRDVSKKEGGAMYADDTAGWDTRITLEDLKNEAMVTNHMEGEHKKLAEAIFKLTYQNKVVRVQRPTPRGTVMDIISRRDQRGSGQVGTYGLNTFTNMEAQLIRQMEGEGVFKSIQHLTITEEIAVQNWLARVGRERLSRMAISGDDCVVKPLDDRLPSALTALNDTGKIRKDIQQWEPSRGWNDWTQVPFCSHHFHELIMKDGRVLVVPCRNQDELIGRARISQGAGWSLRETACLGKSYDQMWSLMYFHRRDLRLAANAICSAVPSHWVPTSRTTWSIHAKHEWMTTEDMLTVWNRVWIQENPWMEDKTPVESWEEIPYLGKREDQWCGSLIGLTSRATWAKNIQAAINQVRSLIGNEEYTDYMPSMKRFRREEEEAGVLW

[6] = THP-1 cell cytotoxicity, dose response, cytotoxicity control for Vif-APOBEC3G degradation inhibitor project, THP-1 cells (AID 1117359); details: Human immunodeficiency virus 1, THP-1

IC50 (Caspase-3) | IC50 [2] | IC50 [3] | IC50 [4] | Structure (SMILES) | IC50 [1] | CC50 (Vero) | IC50 [5] | IC50 (Hexokinase HKDC1) | IC50 (Genome polyprotein) | CC50 [6]
> 99 µM (inactive) | > 99 µM (inactive) | > 99 µM (inactive) | – | Cc1ccccc1NC(=O)CCC(=O)N/N=C/c1c[nH]c2ccccc12 | > 99 µM (inactive) | – | – | – | – | –
> 99 µM (inactive) | > 99 µM (inactive) | > 99 µM (inactive) | – | CCCC(=O)Nc1ccc(C(=O)N/N=C/c2c(C)[nH]c3ccccc23)cc1 | > 99 µM (inactive) | – | – | – | – | –
> 99 µM (inactive) | > 99 µM (inactive) | > 99 µM (inactive) | – | COCc1c(Br)c(C)nc(OCC(=O)N/N=C/c2c[nH]c3ccccc23)c1C#N | > 99 µM (inactive) | – | – | – | – | –
– | – | – | 30.2 µM (active) | Cc1cc(O)ccc1/N=C/c1c(C(F)(F)F)n[nH]c1O | – | > 40 µM (active) | – | – | – | –
– | – | – | – | COc1ccc2[nH]c3c4c(ccc3c2c1)C(=O)C=CC4=O | – | 17.9 µM (active) | 0.919 µM (active) | 19.1 µM (active) | > 100 µM (active) | 3.94 µM (active)
